From ChEMBL document CHEMBL1122412, “Synthesis of a biologically active fluorescent muramyl dipeptide congener” (1983)
Where “and” joins values, the source holds several entries; their conditions need not be identical. Identical values can stand only once.

How the values were obtained:
Format in all cases: functional
[1] = organism: Cavia porcellus; assay: Ability of L,L-MDP to induce spreading of cultured guinea pig peritoneal exudate macrophages at 10 ug/mL concentration
[2] = organism: Cavia porcellus; assay: Ability of I-MDP to induce spreading of cultured guinea pig peritoneal exudate macrophages at 10 ug/mL concentration
[3] = organism: Cavia porcellus; assay: Ability of I-MDP to inhibit migration of cultured guinea pig peritoneal exudate macrophages at 10 ug/mL concentration in expt 2
[4] = organism: Cavia porcellus; assay: Ability of L,L-MDP to inhibit migration of cultured guinea pig peritoneal exudate macrophages at 10 ug/mL concentration in expt 5
[5] = organism: Cavia porcellus; assay: Ability of P-MDP to induce spreading of cultured guinea pig peritoneal exudate macrophages at 10 ug/mL concentration
[6] = organism: Cavia porcellus; assay: Ability of L,L-MDP to inhibit migration of cultured guinea pig peritoneal exudate macrophages at 0.1 ug/mL concentration in expt 4
[7] = organism: Cavia porcellus; assay: Ability of P-MDP to inhibit migration of cultured guinea pig peritoneal exudate macrophages at 1 ug/mL concentration in expt 4
[8] = organism: Cavia porcellus; assay: Ability of L,L-MDP to induce spreading of cultured guinea pig peritoneal exudate macrophages at 0.1 ug/mL concentration
[9] = organism: Cavia porcellus; assay: Ability of I-MDP to induce spreading of cultured guinea pig peritoneal exudate macrophages at 0.01 ug/mL concentration
[10] = organism: Cavia porcellus; assay: Ability of P-MDP to induce spreading of cultured guinea pig peritoneal exudate macrophages at 0.01 ug/mL concentration
[11] = organism: Cavia porcellus; assay: Ability of L,L-MDP to induce spreading of cultured guinea pig peritoneal exudate macrophages at 1 ug/mL concentration
[12] = organism: Cavia porcellus; assay: Ability of P-MDP to inhibit migration of cultured guinea pig peritoneal exudate macrophages at 0.1 ug/mL concentration in expt 3
[13] = organism: Cavia porcellus; assay: Ability of I-MDP to inhibit migration of cultured guinea pig peritoneal exudate macrophages at 1 ug/mL concentration in expt 2
[14] = organism: Cavia porcellus; assay: Ability of I-MDP to induce spreading of cultured guinea pig peritoneal exudate macrophages at 1 ug/mL concentration
[15] = organism: Cavia porcellus; assay: Ability of P-MDP to inhibit migration of cultured guinea pig peritoneal exudate macrophages at 0.01 ug/mL concentration in expt 3
[16] = organism: Cavia porcellus; assay: Ability of P-MDP to induce spreading of cultured guinea pig peritoneal exudate macrophages at 1 ug/mL concentration
[17] = organism: Cavia porcellus; assay: Ability of L,L-MDP to induce spreading of cultured guinea pig peritoneal exudate macrophages at 0.01 ug/mL concentration
[18] = organism: Cavia porcellus; assay: Ability of P-MDP to induce spreading of cultured guinea pig peritoneal exudate macrophages at 0.1 ug/mL concentration
[19] = organism: Cavia porcellus; assay: Ability of P-MDP to inhibit migration of cultured guinea pig peritoneal exudate macrophages at 10 ug/mL concentration in expt 4
[20] = organism: Cavia porcellus; assay: Ability of I-MDP to inhibit migration of cultured guinea pig peritoneal exudate macrophages at 0.01 ug/mL concentration in expt 1
[21] = organism: Cavia porcellus; assay: Ability of L,L-MDP to inhibit migration of cultured guinea pig peritoneal exudate macrophages at 0.01 ug/mL concentration in expt 4
[22] = organism: Cavia porcellus; assay: Ability of I-MDP to inhibit migration of cultured guinea pig peritoneal exudate macrophages at 0.1 ug/mL concentration in expt 1
[23] = organism: Cavia porcellus; assay: Ability of P-MDP to inhibit migration of cultured guinea pig peritoneal exudate macrophages at 1 ug/mL concentration in expt 3
[24] = organism: Cavia porcellus; assay: Ability of I-MDP to inhibit migration of cultured guinea pig peritoneal exudate macrophages at 0.1 ug/mL concentration in expt 2
[25] = organism: Cavia porcellus; assay: Ability of L,L-MDP to inhibit migration of cultured guinea pig peritoneal exudate macrophages at 1 ug/mL concentration in expt 4
[26] = organism: Cavia porcellus; assay: Ability of P-MDP to inhibit migration of cultured guinea pig peritoneal exudate macrophages at 0.01 ug/mL concentration in expt 2
[27] = organism: Cavia porcellus; assay: Ability of I-MDP to induce spreading of cultured guinea pig peritoneal exudate macrophages at 0.1 ug/mL concentration
[28] = organism: Cavia porcellus; assay: Ability of I-MDP to inhibit migration of cultured guinea pig peritoneal exudate macrophages at 1 ug/mL concentration in expt 1
[29] = organism: Cavia porcellus; assay: Ability of MDP to inhibit migration of cultured guinea pig peritoneal exudate macrophages at 0.1 ug/mL concentration in expt 5
[30] = organism: Cavia porcellus; assay: Ability of MDP to inhibit migration of cultured guinea pig peritoneal exudate macrophages at 10 ug/mL concentration in expt 5
[31] = organism: Cavia porcellus; assay: Ability of MDP to inhibit migration of cultured guinea pig peritoneal exudate macrophages at 1 ug/mL concentration in expt 4
[32] = organism: Cavia porcellus; assay: Ability of MDP to induce spreading of cultured guinea pig peritoneal exudate macrophages at 1 ug/mL concentration
[33] = organism: Cavia porcellus; assay: Ability of MDP to inhibit migration of cultured guinea pig peritoneal exudate macrophages at 0.01 ug/mL concentration in expt 3
[34] = organism: Cavia porcellus; assay: Ability of MDP to inhibit migration of cultured guinea pig peritoneal exudate macrophages at 1 ug/mL concentration in expt 2
[35] = organism: Cavia porcellus; assay: Ability of MDP to induce spreading of cultured guinea pig peritoneal exudate macrophages at 10 ug/mL concentration
[36] = organism: Cavia porcellus; assay: Ability of MDP to inhibit migration of cultured guinea pig peritoneal exudate macrophages at 0.01 ug/mL concentration in expt 1
[37] = organism: Cavia porcellus; assay: Ability of MDP to inhibit migration of cultured guinea pig peritoneal exudate macrophages at 1 ug/mL concentration in expt 5
[38] = organism: Cavia porcellus; assay: Ability of MDP to inhibit migration of cultured guinea pig peritoneal exudate macrophages at 10 ug/mL concentration in expt 4
[39] = organism: Cavia porcellus; assay: Ability of MDP to inhibit migration of cultured guinea pig peritoneal exudate macrophages at 0.01 ug/mL concentration in expt 2
[40] = organism: Cavia porcellus; assay: Ability of MDP to induce spreading of cultured guinea pig peritoneal exudate macrophages at 0.1 ug/mL concentration
[41] = organism: Cavia porcellus; assay: Ability of MDP to inhibit migration of cultured guinea pig peritoneal exudate macrophages at 0.1 ug/mL concentration in expt 2
[42] = organism: Cavia porcellus; assay: Ability of MDP to inhibit migration of cultured guinea pig peritoneal exudate macrophages at 1 ug/mL concentration in expt 3
[43] = organism: Cavia porcellus; assay: Ability of MDP to inhibit migration of cultured guinea pig peritoneal exudate macrophages at 0.1 ug/mL concentration in expt 4
[44] = organism: Cavia porcellus; assay: Ability of MDP to inhibit migration of cultured guinea pig peritoneal exudate macrophages at 0.1 ug/mL concentration in expt 1
[45] = organism: Cavia porcellus; assay: Ability of MDP to induce spreading of cultured guinea pig peritoneal exudate macrophages at 0.01 ug/mL concentration
[46] = organism: Cavia porcellus; assay: Ability of MDP to inhibit migration of cultured guinea pig peritoneal exudate macrophages at 0.1 ug/mL concentration in expt 3
[47] = organism: Cavia porcellus; assay: Ability of MDP to inhibit migration of cultured guinea pig peritoneal exudate macrophages at 1 ug/mL concentration in expt 1

## CC(=O)N[C@H]1C(O)O[C@H](CO)[C@@H](O)[C@@H]1O[C@H](C)C(=O)N[C@@H](C)C(=O)N[C@H](CCC(=O)O)C(N)=O (some centres not stated) [MURAMYL DIPEPTIDE]
[1]
  Spreading: 76%
[2]
  Spreading: 80%
[3]
  Migration index: 64
[4]
  Migration index: 65
[5]
  Spreading: 79%
[6]
  Migration index: 58
[7]
  Migration index: 62
[8]
  Spreading: 56%
[9]
  Spreading: 50%
[10]
  Spreading: 62.5%
[11]
  Spreading: 51.5%
[12]
  Migration index: 52 and 34 and 26
[13]
  Migration index: 61 and 64
[14]
  Spreading: 73%
[15]
  Migration index: 12
[16]
  Spreading: 75.5%
[17]
  Spreading: 48%
[18]
  Spreading: 80%
[19]
  Migration index: 52 and 63
[20]
  Migration index: 119 and 92 and 108
[21]
  Migration index: 54
[22]
  Migration index: 68 and 88
[23]
  Migration index: 17 and 34
[24]
  Migration index: 64 and 68
[25]
  Migration index: 52
[26]
  Migration index: 63
[27]
  Spreading: 72.5%
[28]
  Migration index: 70 and 114

## CC(=O)N[C@@H]1[C@@H](O[C@H](C)C(=O)N[C@@H](C)C(=O)N[C@H](CCC(=O)[O-])C(N)=O)[C@H](O)[C@@H](COc2nc(O)nc(N=C3C=CC(=C4c5ccc(O)cc5Oc5cc(O)ccc54)C(C(=O)[O-])=C3)n2)O[C@H]1O.[Na+].[Na+]
[29]
  Migration index: 74
[30]
  Migration index: 74
[31]
  Migration index: 49
[32]
  Spreading: 74.3%
[33]
  Migration index: 62
[34]
  Migration index: 60
[35]
  Spreading: 73.3%
[36]
  Migration index: 73
[37]
  Migration index: 70
[38]
  Migration index: 53
[39]
  Migration index: 84
[40]
  Spreading: 68.5%
[41]
  Migration index: 52
[42]
  Migration index: 18
[43]
  Migration index: 51
[44]
  Migration index: 102
[45]
  Spreading: 45%
[46]
  Migration index: 27
[47]
  Migration index: 63
